This is an account of results in PubChem BioAssay AID652108 (The Scripps Research Institute Molecular Screening Center, 2013).

Test systems include 24 hours; 1 hour; 1 week.
Common to all, as to test: PubChem AID 652108
Common to all, as to settings: mouse tail flick latency, kappa agonist-induced antinociception

With `COC(=O)c1cc(Br)cnc1N1CCC(NC2CCCCC2)C(O)C1` (configuration not stated), the tail flick latency with 24 hours is 13.4 s; in the experiment on 24 hours (baseline latency at 0 min) it was 4.23 s; with 24 hours (latency at 30 min), 9.11 s; with 24 hours (latency at 60 min) it was 5.2 s; in the experiment on 1 hour, 8.07 s; in the experiment on 1 hour (baseline latency at 0 min), 4.68 s. Also, the tail flick latency in the experiment with 1 hour (latency at 30 min) amounted to 6.04 s; in the experiment with 1 hour (latency at 60 min), 4.2 s; in the experiment on 1 week, 12 s; in the experiment with 1 week (baseline latency at 0 min), 3.47 s; with 1 week (latency at 30 min), 8.5 s; with 1 week (latency at 60 min), 3.25 s.
